Results taken from patent publication US20120065265A1, “ALPHA-2-DELTA LIGANDS FOR NON-RESTORATIVE SLEEP” (Pfizer Inc., priority 2006, published 2012).

Tested on: subjects with non-restorative sleep (NRS)
Experiment: Randomized, double-blind, placebo- and active-controlled 4-way crossover study in an NRS population: efficacy
Format: in vivo, human
Conditions: for RSQ-W Total Score, comparison with placebo: one-sided alpha 0.05; for RSQ-W Total Score, LS Mean (primary endpoint): po, 336 h
Procedure: STUDY DESIGN. […] Subjects were subsequently crossed over 3 times to receive the remaining treatments, each for 2 weeks followed by a 1—week washout period. […] Each treatment was administered at least 2 hours after a meal. DIAGNOSIS AND MAIN CRITERIA FOR INCLUSION. Subjects selected for the study were male and/or nonpregnant, nonlactating females between the ages of 18-64 years, inclusive, who regularly (≧3 times/week) awoke un-restored or un-refreshed for at least the previous 3 months, causing significant distress or impairment in social, occupational, or other important areas of functioning during the daytime.
EFFICACY & SAFETY EVALUATIONS. The primary endpoint in this study was the Restorative Sleep Questionnaire—Weekly (RSQ-W) Total Score at the end of each 2-week treatment period. The RSQ-W, below, is a patient-reported outcome measure of morning refreshment over the past week in which larger values of the total score correspond to greater refreshment. All remaining efficacy/outcomes endpoints were considered secondary. Safety data, including adverse event information, clinical laboratory values, physical examination, vital signs, and electrocardiograms (ECGs) were collected during the study.
STATISTICAL METHODS. The Full Analysis Set was used in the analyses of all efficacy/outcome endpoints. […] The Per-Protocol Analysis Set was used for sensitivity analyses of certain efficacy/outcome endpoints as appropriate. […] Protocol deviations included the major inclusion/exclusion criteria assessed prior to randomization and major protocol deviations or violations assessed after randomization. […] The Safety Analysis Set was used in the analyses of the safety data and consisted of all randomized subjects who took any study medication.
Each comparison was done at the nominal alpha=0.05 level (one-sided), recognizing that the probability of committing at least one Type I error could be greater than 0.05 but no more than 0.15.
MODEL-BASED SUMMARY. The primary endpoint in this study was the RSQ-W Total Score at the end of each 2-week treatment period. This endpoint was analyzed using a linear model including sequence, period, and treatment as fixed factors, and subject within sequence and within-subject error as random factors. First-order carryover effects were explored and tested at the 10% nominal level of significance. Pair-wise comparisons were made based on the final linear model. The point estimates and 90% confidence intervals (Cis) for the placebo-adjusted treatment effects were constructed using the least squares (LS) means and appropriate standard errors.
DESCRIPTIVE SUMMARY. For each item and Total Score of the RSQ-W, descriptive statistics were provided by treatment and visit.
For secondary/exploratory purposes, certain secondary efficacy endpoints were analyzed with model-based statistical procedures. […] All comparisons are considered secondary/exploratory, and each was done at the nominal alpha=0.05 level (one-sided). No multiple comparison adjustment was made. All secondary efficacy endpoints were summarized descriptively. For secondary/exploratory purposes, appropriate model-based statistical procedures similar to those for the primary endpoint were used to analyze the following scales and subscales: • Restorative Sleep Questionnaire—Daily (RSQ-D, below): weekly averages of Total Score; • Daytime Consequences of Sleep Questionnaire (DCSQ): Total Score; • Multidimensional Assessment of Fatigue (MAF): Global Fatigue Index, Impact Subscale; • Subjective Sleep Questionnaire (SSQ): Sleep Quality; • Sheehan Disability Scale (SDS): Total Score; • SF-36v2: Mental Component Summary, Physical Component Summary, Vitality Subscale; • Clinical Global Impression of Change (CGIC): Status Score; and • Patient Global Impression of Change (PGIC): Status Score.

[1] = COMPOUND A doses (25 mg and 50 mg)

| SMILES | RSQ-D Total Score at Week 2 (COMPOUND A 25 mg) | RSQ-W Total Score, comparison with placebo (COMPOUND A 25 mg) | Evening Functioning Scale (COMPOUND A dose groups, similar level of functioning as with zolpidem) | MAF Impact Subscale score at Week 2, comparison with placebo [1] | RSQ-D Total Score at Week 2, comparison with placebo [1] | RSQ-W Total Score, LS Mean (primary endpoint) (25 mg) | RSQ-W Total Score, LS Mean (primary endpoint) (50 mg) | Treatment effect relative to placebo on the primary endpoint, the RSQ-W (conclusion) (subjects with non-restorative sleep, no dose stated) | RSQ-W Total Score, comparison with placebo (zolpidem 10 mg) |
| --- | --- | --- | --- | --- | --- | --- | --- | --- | --- |
| C[C@H]1CC(CN)(CC(=O)O)C[C@@H]1C [COMPOUND A, (3S,4S)-(1-aminomethyl-3,4-dimethyl-cyclopentyl)-acetic acid] | 61.5 | statistically significantly different from placebo | better functioning than while taking placebo | not statistically significantly different from placebo | no statistically significant differences from placebo | 63.6 | 62.5 | positive treatment effect relative to placebo |  |
| Cc1ccc(-c2nc3ccc(C)cn3c2CC(=O)N(C)C)cc1 [zolpidem, reference compound] |  |  |  |  |  |  |  |  | not statistically significantly different from placebo |
